From patent US10045983B2, “Heteroaryl pyridone and aza-pyrodine compounds” (Genentech, Inc., priority 2011, dated 2018)
Like-named read-outs stand apart in the source and are kept apart here.

Test: CD69 Whole Blood Assay (CD69 Hu Blood FACS)
Format: cell-based, human
Settings: Lymphocyte, human whole blood, anti-IgM activated B lymphocytes, FACS, IC70
Summary of the method: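 Compounds tested for blocking B-cell CD69 induction by flow cytometry in human whole blood, with activation via anti-human IgM goat F(ab′)2 crosslinking of surface IgM.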

[1] = Table 1, read-out: CD69 Hu Blood FACS IC70
[2] = Table 2 (unit inferred), read-out: CD69 Hu Blood FACS (IC70)

Row | Compound | IC70 [1] | IC70 [2]
1 | Cn1cc(-c2cncc(N3CCn4c(cc5c4CCCC5)C3=O)c2CO)cc(Nc2ccc(N3CCN(C4COC4)CC3)cn2)c1=O [Example 101, 2-(4-(hydroxymethyl)-5-(1-methyl-5-(5-(4-(oxetan-3-yl)piperazin-1-yl)pyridin-2-ylamino)-6-oxo-1,6-dihydropyridin-3-yl)pyridin-3-yl)-3,4,6,7,8,9-hexahydropyrazino[1,2-a]indol-1(2H)-one] | 132 nM | 
2 | C[C@H]1CN(C2COC2)CCN1c1ccc(Nc2cc(-c3ccnc(N4CCn5c6c(c(F)c5C4=O)CCCC6)c3CO)cn(C)c2=O)nc1 [Example 136, (S)-10-Fluoro-2-(3-(hydroxymethyl)-4-(1-methyl-5-(5-(2-methyl-4-(oxetan-3-yl)piperazin-1-yl)pyridin-2-ylamino)-6-oxo-1,6-dihydropyridin-3-yl)pyridin-2-yl)-3,4,6,7,8,9-hexahydropyrazino[1,2-a]indol-1(2H)-one] | 30 nM | 
3 | CC[C@H]1CN(C2COC2)CCN1c1ccc(Nc2cc(-c3ccnc(-n4ccn5c6c(cc5c4=O)CCCC6)c3CO)cn(C)c2=O)nc1 [Example 165, 2-{5-[5-((S)-2-Ethyl-4-oxetan-3-yl-piperazin-1-yl)-pyridin-2-ylamino]-3′-hydroxymethyl-1-methyl-6-oxo-1,6-dihydro-[3,4′]bipyridinyl-2′-yl}-6,7,8,9-tetrahydro-2H-pyrazino[1,2-a]indol-1-one] | 41.7 nM | 
4 | Cn1cc(-c2ccnc(N3CCn4c(cc5c4CCCC5)C3=O)c2CO)cc(Nc2ccc(S(C)(=O)=O)cn2)c1=O [Example 117, 2-(3-(hydroxymethyl)-4-(1-methyl-5-(5-(methylsulfonyl)pyridin-2-ylamino)-6-oxo-1,6-dihydropyridin-3-yl)pyridin-2-yl)-3,4,6,7,8,9-hexahydro-pyrazino[1,2-a]indol-1(2H)-one] | 396 nM | 
5 | Cc1cc(Nc2cc(-c3ccnc(N4CCn5c(cc6c5CC(C)(C)C6)C4=O)c3CO)cn(C)c2=O)nn1C1COC1 [Example 312, 3-[3-(hydroxymethyl)-4-[1-methyl-5-[[5-methyl-1-(oxetan-3-yl)pyrazol-3-yl]amino]-6-oxo-3-pyridyl]-2-pyridyl]-7,7-dimethyl-1,2,6,8-tetrahydrocyclopenta[3,4]pyrrolo[3,5-b]pyrazin-4-one] |  | 5600 nM
6 | C[C@@H]1COCCN1C(=O)c1ccc(Nc2cc(-c3ccnc(N4CCn5c(cc6c5CC(C)(C)C6)C4=O)c3CO)nn(C)c2=O)nc1 [Example 248, 3-[3-(hydroxymethyl)-4-[1-methyl-5-[[5-[(3R)-3-methylmorpholine-4-carbonyl]-2-pyridyl]amino]-6-oxo-pyridazin-3-yl]-2-pyridyl]-7,7-dimethyl-1,2,6,8-tetrahydrocyclopenta[3,4]pyrrolo[3,5-b]pyrazin-4-one] |  | 70.3 nM
7 | Cc1nc(Nc2cc(-c3ccnc(N4CCn5c(cc6c5CC(C)(C)C6)C4=O)c3CO)cn(C)c2=O)cn1C [Example 337, 3-[4-[5-[(1,2-dimethylimidazol-4-yl)amino]-1-methyl-6-oxo-3-pyridyl]-3-(hydroxymethyl)-2-pyridyl]-7,7-dimethyl-1,2,6,8-tetrahydrocyclopenta[3,4]pyrrolo[3,5-b]pyrazin-4-one] |  | 613 nM
8 | Cn1cc(-c2ccnc(N3CCn4c(cc5c4CC(C)(C)C5)C3=O)c2CO)cc(Nc2cc(C3CC3)on2)c1=O [Example 311, 3-[4-[5-[(5-cyclopropylisoxazol-3-yl)amino]-1-methyl-6-oxo-3-pyridyl]-3-(hydroxymethyl)-2-pyridyl]-7,7-dimethyl-1,2,6,8-tetrahydrocyclopenta[3,4]pyrrolo[3,5-b]pyrazin-4-one] |  | 158 nM
9 | Cn1cc(-c2ccnc(N3CCn4c(cc5c4CC(C)(C)C5)C3=O)c2CO)cc(Nc2cc[nH]n2)c1=O [Example 289, 3-[3-(hydroxymethyl)-4-[1-methyl-6-oxo-5-(1H-pyrazol-3-ylamino)-3-pyridyl]-2-pyridyl]-7,7-dimethyl-1,2,6,8-tetrahydrocyclopenta[3,4]pyrrolo[3,5-b]pyrazin-4-one] |  | 214 nM
10 | CN1CCn2nc(Nc3cc(-c4ccnc(-n5ncc6c7c(sc6c5=O)CCCC7)c4CO)cn(C)c3=O)cc2C1 [Example 181, 3-[3′-Hydroxymethyl-1-methyl-5-(5-methyl-4,5,6,7-tetrahydro-pyrazolo[1,5-a]pyrazin-2-ylamino)-6-oxo-1,6-dihydro-[3,4′]bipyridinyl-2′-yl]-6,7,8,9-tetrahydro-3H-benzo[4,5]thieno[2,3-d]pyridazin-4-one] | 144 nM | 
11 | CN1CCC(c2ccc(Nc3cc(-c4ccnc(N5CCn6c(cc7c6CC(C)(C)C7)C5=O)c4CO)cn(C)c3=O)nc2)CC1 [Example 236, 3-[3-(hydroxymethyl)-4-[1-methyl-5-[[5-(1-methyl-4-piperidyl)-2-pyridyl]amino]-6-oxo-3-pyridyl]-2-pyridyl]-7,7-dimethyl-1,2,6,8-tetrahydrocyclopenta[3,4]pyrrolo[3,5-b]pyrazin-4-one] |  | 33.6 nM
12 | Cc1nccc(Nc2cc(-c3cncc(N4CCn5c(cc6c5CC(C)(C)C6)C4=O)c3CO)cn(C)c2=O)n1 [Example 215, 3-[4-(hydroxymethyl)-5-[1-methyl-5-[(2-methylpyrimidin-4-yl)amino]-6-oxo-3-pyridyl]-3-pyridyl]-7,7-dimethyl-1,2,6,8-tetrahydrocyclopenta[3,4]pyrrolo[3,5-b]pyrazin-4-one] |  | 457 nM
13 | C[C@@H]1COCCN1C(=O)c1ccc(Nc2cc(-c3ccnc(N4CCn5c(cc6c5CC(C)(C)C6)C4=O)c3CO)cn(C)c2=O)nc1 [Example 249, 3-[3-(hydroxymethyl)-4-[1-methyl-5-[[5-[(3R)-3-methylmorpholine-4-carbonyl]-2-pyridyl]amino]-6-oxo-3-pyridyl]-2-pyridyl]-7,7-dimethyl-1,2,6,8-tetrahydrocyclopenta[3,4]pyrrolo[3,5-b]pyrazin-4-one] |  | 17.7 nM
14 | CN1CCN(c2ccc(Nc3cc(-c4cncc(N5CCn6c(cc7c6CCCC7)C5=O)c4CO)cn(C)c3=O)nc2)CC1 [Example 102, 2-(4-(Hydroxymethyl)-5-(1-methyl-5-(5-(4-methylpiperazin-1-yl)pyridin-2-ylamino)-6-oxo-1,6-dihydropyridin-3-yl)pyridin-3-yl)-3,4,6,7,8,9-hexahydropyrazino[1,2-a]indol-1(2H)-one] | 132 nM | 
15 | C[C@@H]1CN(c2ccc(Nc3cc(-c4cncc(N5CCn6c(cc7c6CCCC7)C5=O)c4CO)cn(C)c3=O)nc2)[C@@H](C)CN1C1COC1 [Example 157] | 29.8 nM | 
16 | Cn1cc(-c2ccnc(N3CCn4c(cc5c4CCCC5)C3=O)c2CO)cc(Nc2ccc(N3CCN(C4COC4)CC3(C)C)cn2)c1=O [Example 190, 2-[4-[5-[[5-[2,2-dimethyl-4-(oxetan-3-yl)piperazin-1-yl]-2-pyridyl]amino]-1-methyl-6-oxo-3-pyridyl]-3-(hydroxymethyl)-2-pyridyl]-3,4,6,7,8,9-hexahydropyrazino[1,2-a]indol-1-one] |  | 70.4 nM
17 | Cc1cc(Nc2cc(-c3ccnc(N4CCn5c(cc6c5CC(C)(C)C6)C4=O)c3CO)cn(C)c2=O)nn1C [Example 218, 3-[4-[5-[(1,5-dimethylpyrazol-3-yl)amino]-1-methyl-6-oxo-3-pyridyl]-3-(hydroxymethyl)-2-pyridyl]-7,7-dimethyl-1,2,6,8-tetrahydrocyclopenta[3,4]pyrrolo[3,5-b]pyrazin-4-one] |  | 74.1 nM
18 | Cn1nc(-c2ccnc(N3CCn4c(cc5c4CCCC5)C3=O)c2CO)cc(Nc2cc3n(n2)CCOC3)c1=O [Example 132, 2-(4-(5-(6,7-Dihydro-4H-pyrazolo[5,1-c][1,4]oxazin-2-ylamino)-1-methyl-6-oxo-1,6-dihydropyridazin-3-yl)-3-(hydroxymethyl)pyridin-2-yl)-3,4,6,7,8,9-hexahydropyrazino[1,2-a]indol-1(2H)-one] | 263 nM | 
19 | CNC(=O)c1c(-c2cc(Nc3ccc(N4CCN(C5COC5)C[C@@H]4C)cn3)c(=O)n(C)c2)ccnc1N1CCn2c(cc3c2CC(C)(C)C3)C1=O [Example 211, 2-(7,7-dimethyl-4-oxo-1,2,6,8-tetrahydrocyclopenta[3,4]pyrrolo[3,5-b]pyrazin-3-yl)-N-methyl-4-[1-methyl-5-[[5-[(2S)-2-methyl-4-(oxetan-3-yl)piperazin-1-yl]-2-pyridyl]amino]-6-oxo-3-pyridyl]pyridine-3-carboxamide] |  | 2100 nM
20 | Cn1cc(-c2ccnc(-n3ncc4c5n(cc4c3=O)CCCC5)c2CO)cc(Nc2ccc(N3CCN(C4COC4)CC3)cn2)c1=O [Example 198, 3-[3-(hydroxymethyl)-4-[1-methyl-5-[[5-[4-(oxetan-3-yl)piperazin-1-yl]-2-pyridyl]amino]-6-oxo-3-pyridyl]-2-pyridyl]-7,8,9,10-tetrahydropyridazino[4,5-a]indolizin-4-one] |  | 6000 nM
21 | COCCN1CCN(c2ccc(Nc3cc(-c4ccnc(N5CCn6c(cc7c6CC(C)(C)C7)C5=O)c4CO)cn(C)c3=O)nc2)CC1 [Example 339, 3-[3-(hydroxymethyl)-4-[5-[[5-[4-(2-methoxyethyl)piperazin-1-yl]-2-pyridyl]amino]-1-methyl-6-oxo-3-pyridyl]-2-pyridyl]-7,7-dimethyl-1,2,6,8-tetrahydrocyclopenta[3,4]pyrrolo[3,5-b]pyrazin-4-one] |  | 53.5 nM
22 | C[C@H]1CN(C2COC2)CCN1c1ccc(Nc2cc(-c3ccnc(-n4ncc5c6c(sc5c4=O)CC(C)(C)C6)c3CO)cn(C)c2=O)nc1 [Example 282, 3-[3-(hydroxymethyl)-4-[1-methyl-5-[[5-[(2S)-2-methyl-4-(oxetan-3-yl)piperazin-1-yl]-2-pyridyl]amino]-6-oxo-3-pyridyl]-2-pyridyl]-7,7-dimethyl-6,8-dihydrocyclopenta[3,4]thieno[1,3-d]pyridazin-4-one] |  | 17.4 nM
23 | Cn1nc(-c2ccnc(N3CCn4c(cc5c4CCCC5)C3=O)c2CO)cc(Nc2ccc(C(=O)N3CCOCC3)cn2)c1=O [Example 227, 2-[3-(hydroxymethyl)-4-[1-methyl-5-[[5-(morpholine-4-carbonyl)-2-pyridyl]amino]-6-oxo-pyridazin-3-yl]-2-pyridyl]-3,4,6,7,8,9-hexahydropyrazino[1,2-a]indol-1-one] |  | 730 nM
